In patent US20250057793A1, “BENZOIC ACID SALTS FOR TREATMENT OF NERVOUS SYSTEM INJURIES AND DISORDERS” (The United States Government as represented by the …, priority 2021, published 2025):

How the values were obtained:
[1] = tested on: Huntington pathology in mice; settings: oral, 50 mg/kg body wt/d; cited from earlier work
TBI mice [2] = experiment: Novel object recognition (NOR) test in TBI mice; type: in vivo, mouse; settings: 21 days post-injury, 50 mg/kg/day oral gavage
Protocol: This test evaluates the animal's ability to recognize the novel object in the environment and monitor short-term memory. Initially, the mice were placed in a square novel box (20 in. long×8 in. high) surrounded with an infrared sensor. Two plastic toys (2.5-3 in. size) that varied in color, shape, and texture were placed in specific locations in the environment 18in. away from each other. The mice were able to freely explore the environment and objects for 15 mins and were then placed back into their individual home cages. After 30 min intervals, the mice were placed back into the environment, with the 2 objects in the same locations, but now one of the familiar objects was replaced with a third novel object. The mice were again allowed to freely explore both objects for 15 min. The familiar and novel objects were thoroughly cleaned with a mild detergent after each testing session.

[3] = tested on: experimental allergic encephalomyelitis (EAE) in mice; settings: oral, 50 mg/kg body wt/d; cited from earlier work
TBI mice [4] = experiment: Synapse maturation markers (PSD-95, NR2A, GluR1) in brain of TBI mice; type: in vivo, mouse; settings: 21 days post-injury, 50 mg/kg/day oral gavage
Protocol: FIGS. 1lA-11H. Restoration of PSD-95, NR2A and GluR1 in the hippocampus of TBI mice by oral administration of GTB. […] Twenty-one days after CCI injury, brain sections were double-labeled for NeuN and PSD-95 (FIG. 11A, control; FIG. 111B, CCI; FIG. 11C, CCI+GTB; FIG. 11D, CCI+Vehicle). Results represent analysis of one section of each of six mice per group. […] FIG. 11E. Actin was run as a loading control. […] Data are expressed as mean+SD. Statistical analyses were performed with one way ANOVA.

[5] = tested on: mice with traumatic brain injury (TBI); experiment: Remyelination in corpus callosum of mice with TBI (PLP/A2B5 double-labeling); type: in vivo, mouse; settings: 50 mg/kg body weight/day oral gavage
Protocol: FIG. 4 are images of the corpus collosum in mice showing the levels of proteolipid protein (PLP) and A2B5, a marker of oligodendroglial progenitor cells (OPC), in the experimental conditions after 21 days. Oral administration of sodium benzoate (NaB), but not sodium formate (NaFO), stimulates remyelination in mice with traumatic brain injury (TBI). Mice (n=6 per group) were induced moderate TBI by controlled cortical impact (CCI). Starting from 2 hours after TBI, mice were treated with NaB and NaFO (50 mg/kg body weight/day; mixed with water) orally via gavage. After 21 d of treatment, brain sections were double-labeled for PLP and A2B5.
Proteolipid protein (PLP) is a marker of oligodendrocytes and A2B5 is a marker of oligodendroglial progenitor cells (OPC). After 21 days of treatment, brain sections were double-labeled with antibodies against PLP and A2B5.

LPS-stimulated microglia = settings: cited from earlier work
[6] = if consumed in excess; cited from earlier work
[7] = tested on: OPCs cultured on polycaprolactone nanofibers; experiment: Myelination of synthetic polycaprolactone nanofibers by OPCs; type: cell-based, mouse; settings: 100 μM, 2 days after 7 days culture on nanofibers
Protocol: FIG. 15A) After 18 h of 100 μM NaB treatment in serum-free condition, cells were fixed and then dual immuno-stained with MBP (red) and OPC marker NG2 (green). Nuclei were stained with DAPI (blue). FIG. 15B) Similarly, OPCs were stained with PLP (red) and A2B5 (green) under similar treatment condition. Quantification of MBP+(FIG. 15C), NG2+(FIG. 15D), PLP+(FIG. 15E), and A2B5+(FIG. 15F) cells as a percentage of total cells (DAPI+). Average 5 fields per slide, total 3 slides. Results are mean+SEM. ***p<0.001. FIG. 15G) For protein expression, cells were treated with different doses of NaB for 18 h under serum free condition and then immunoblotted with PLP and MOG. FIG. 15H) Densitometric analyses of the bands relative to beta actin were done for PLP and MOG. ^ap<0.001 vs. control PLP; ^bp<0.005 vs. control MOG. FIG. 151) Cells were treated with NaB (100 μM) and NaFO (100 μM) for 4 h under serum-free condition followed by monitoring the mRNA expression of myelin-specific genes by real-time PCR (ap<0.01 vs. control PLP; ^bp<0.01 vs. control MOG; cp<0.01 vs. control MBP; dp<0.01 vs. control CNPase). OPCs were cultured on the top of randomly-oriented polycaprolactone nanofibers (Nanofiber Solutions; Cat #Z694576) for 7 days. […]

[8] = tested on: oligodendroglial progenitor cells (OPCs); experiment: Maturation of oligodendroglial progenitor cells (OPCs) into oligodendrocytes; type: cell-based, mouse
Protocol: FIGS. 15A-15L: Effect of sodium benzoate (NaB) on the maturation of oligodendroglial progenitor cells (OPCs) into oligodendrocytes. OPCs were isolated from P1˜P2 neonatal mouse pups, cultured in OPC media for 4 days in vitro (DIV) followed by treatment with 100 μM NaB and sodium formate (NaFO) in the absence of FGF and PDGF.
FIG. 15A) After 18 h of 100 μM NaB treatment in serum-free condition, cells were fixed and then dual immuno-stained with MBP (red) and OPC marker NG2 (green). Nuclei were stained with DAPI (blue). FIG. 15B) Similarly, OPCs were stained with PLP (red) and A2B5 (green) under similar treatment condition. Quantification of MBP+(FIG. 15C), NG2+(FIG. 15D), PLP+(FIG. 15E), and A2B5+(FIG. 15F) cells as a percentage of total cells (DAPI+). Average 5 fields per slide, total 3 slides. Results are mean+SEM. ***p<0.001. FIG. 15G) For protein expression, cells were treated with different doses of NaB for 18 h under serum free condition and then immunoblotted with PLP and MOG. FIG. 15H) Densitometric analyses of the bands relative to beta actin were done for PLP and MOG. ^ap<0.001 vs. control PLP; ^bp<0.005 vs. control MOG. FIG. 151) Cells were treated with NaB (100 μM) and NaFO (100 μM) for 4 h under serum-free condition followed by monitoring the mRNA expression of myelin-specific genes by real-time PCR (ap<0.01 vs. control PLP; ^bp<0.01 vs. control MOG; cp<0.01 vs. control MBP; dp<0.01 vs. control CNPase). OPCs were cultured on the top of randomly-oriented polycaprolactone nanofibers (Nanofiber Solutions; Cat #Z694576) for 7 days. After that, these cells were treated with 100 μM NaB (FIG. 15J) and NaFO (K) for additional 2 days followed by immunofluorescence analysis for MBP (red) (FIG. 15J, control; FIG. 15K, NaB; FIG. 15L, NaFO). […] Representative 3D constructed images of OPCs adhered to nanofibers were also shown at the right side.

mice with TBI = experiment: Side effects of oral NaB in TBI mice; type: in vivo, mouse
[9] = mice treated with cinnamon orally; cited from earlier work
[10] = different doses of NaB, 18 h, serum free

SMILES | Huntington pathology [1] | time spent with novel object (exploration time) (TBI mice [2]) | adoptive transfer of EAE [3] | level of PSD-95 (TBI mice [4]; brain (cortex, hippocampus)) | level of GluR1 (TBI mice [4]; hippocampus) | level of NR2A (TBI mice [4]; hippocampus) | level of PLP in corpus callosum ([5]; 21 days of treatment) | number of OPCs (A2B5 positive) in corpus callosum ([5]; 21 days of treatment) | remyelination ([5]; 21 d of treatment) | level of TLR4 (LPS-stimulated microglia; LPS-stimulated microglia) | LPS-induced expression of iNOS and proinflammatory cytokines (LPS-stimulated microglia; microglia) | p21ras activation (LPS-stimulated microglia; microglial cells) | excretion [6] | myelination of synthetic fibers (MBP immunofluorescence) [7] | mRNA expression of myelin-specific genes (MBP, PLP, MOG, CNPase), real-time PCR ([8]; 100 μM, 4 h, serum-free) | differentiation/maturation of OPCs into oligodendrocytes (MBP+, PLP+, NG2+, A2B5+ cells) ([8]; 100 μM, 18 h, serum-free, absence of FGF and PDGF) | level of MOG in OPCs (immunoblot) [8, 10] | level of PLP in OPCs (immunoblot) [8, 10] | side effects (decrease in body weight, loss of hair, fecal boli, infection, untoward behavior) (mice with TBI) | presence of NaB in the brain [9]
O=C(OCC(COC(=O)c1ccccc1)OC(=O)c1ccccc1)c1ccccc1 [GTB, Glyceryl Tribenzoate] | alleviates | significantly more time | inhibits | upregulated | increased | increased | – | – | – | – | – | – | – | – | – | – | – | – | – | –
O=C([O-])c1ccccc1.[Na+] [NaB, Sodium benzoate] | – | – | – | – | – | – | markedly increased | decreased | stimulates | has no effect | inhibits | suppression | secreted through the urine | stimulation of myelination | corroborated | stimulated | increased | increased | did not cause any side effects | detected in the brain
